Laboratory results published in patent publication US8933230B2, “Phosphorus-containing group-substituted quinoline, its preparation process, medical composition containing the compounds and application” (priority 2011, dated 2015).

Legend:
Assay in all cases: KinomeScan kinase panel
Format in all cases: binding
EPHA5 = target: T1, EPHA5 (Homo sapiens, UniProt P54756)
T1 construct: purchased DiscoveRx Corporation (KinomeScan)
Method in brief: (§1)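 The compound was profiled across a 442-kinase KinomeScan binding panel at a fixed concentration of 1000 nM; values reflect inhibitory effect at that one dose.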

PIP5K2C = target: T2, PIP5K2C (Homo sapiens, UniProt Q8TBX8)
T2 construct: purchased DiscoveRx Corporation (KinomeScan)
Method in brief: as §1

PIK3CA(E545A) = target: T3, PIK3CA(E545A) (Homo sapiens, UniProt P42336, E545A)
T3 construct: purchased DiscoveRx Corporation (KinomeScan)
Method in brief: as §1

TNK1 = target: T4, TNK1 (Homo sapiens, UniProt Q13470)
T4 construct: purchased DiscoveRx Corporation (KinomeScan)
Method in brief: as §1

YES = target: T5, YES (Homo sapiens, UniProt P07947)
T5 construct: purchased DiscoveRx Corporation (KinomeScan service)
T5 sequence (P07947 whole entry): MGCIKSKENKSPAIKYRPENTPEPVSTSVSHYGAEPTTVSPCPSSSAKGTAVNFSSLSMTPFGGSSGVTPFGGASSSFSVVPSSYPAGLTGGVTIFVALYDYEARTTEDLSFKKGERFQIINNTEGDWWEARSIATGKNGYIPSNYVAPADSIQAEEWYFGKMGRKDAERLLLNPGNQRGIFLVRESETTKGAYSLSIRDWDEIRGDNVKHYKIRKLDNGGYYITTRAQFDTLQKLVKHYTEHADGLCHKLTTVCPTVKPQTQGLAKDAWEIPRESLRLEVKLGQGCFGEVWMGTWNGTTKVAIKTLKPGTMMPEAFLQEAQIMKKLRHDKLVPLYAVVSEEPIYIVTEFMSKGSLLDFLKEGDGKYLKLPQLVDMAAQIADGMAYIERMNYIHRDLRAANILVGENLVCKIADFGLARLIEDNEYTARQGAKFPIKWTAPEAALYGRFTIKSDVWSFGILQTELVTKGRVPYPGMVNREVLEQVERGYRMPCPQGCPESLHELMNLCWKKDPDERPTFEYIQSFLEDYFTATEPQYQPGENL
Method in brief: as §1

EGFR(L747-T751del,Sins) = target: T6, EGFR(L747-T751del,Sins) (Homo sapiens, UniProt P00533, DEL747-750/T751S)
T6 construct: purchased DiscoveRx Corporation (KinomeScan)
Method in brief: as §1

[1] = target: T7, ABL1(Q252H)-phosphorylated (Homo sapiens, UniProt P00519, Q252H)
T7 construct: purchased DiscoveRx Corporation (KinomeScan)
Method in brief: as §1

PHKG1 = target: T8, PHKG1 (Homo sapiens, UniProt Q16816)
T8 construct: purchased DiscoveRx Corporation (KinomeScan)
T8 sequence (Q16816 whole entry): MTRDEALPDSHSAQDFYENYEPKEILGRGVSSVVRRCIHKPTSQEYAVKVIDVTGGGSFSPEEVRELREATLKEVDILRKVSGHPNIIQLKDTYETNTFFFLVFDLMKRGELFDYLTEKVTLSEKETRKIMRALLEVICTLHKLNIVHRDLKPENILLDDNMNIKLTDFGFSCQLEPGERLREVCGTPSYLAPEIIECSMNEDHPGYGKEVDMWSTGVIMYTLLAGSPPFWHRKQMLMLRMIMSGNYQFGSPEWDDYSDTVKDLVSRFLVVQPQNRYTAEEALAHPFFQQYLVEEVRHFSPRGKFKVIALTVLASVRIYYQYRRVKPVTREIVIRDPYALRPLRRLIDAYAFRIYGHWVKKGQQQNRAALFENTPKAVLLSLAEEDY
Method in brief: as §1

DAPK3 = target: T9, DAPK3 (Homo sapiens, UniProt O43293)
T9 construct: purchased DiscoveRx Corporation (KinomeScan)
Method in brief: as §1

P38-gamma = target: T10, P38-gamma (Homo sapiens, UniProt P53778)
T10 construct: purchased DiscoveRx Corporation (KinomeScan panel)
T10 sequence (P53778 whole entry): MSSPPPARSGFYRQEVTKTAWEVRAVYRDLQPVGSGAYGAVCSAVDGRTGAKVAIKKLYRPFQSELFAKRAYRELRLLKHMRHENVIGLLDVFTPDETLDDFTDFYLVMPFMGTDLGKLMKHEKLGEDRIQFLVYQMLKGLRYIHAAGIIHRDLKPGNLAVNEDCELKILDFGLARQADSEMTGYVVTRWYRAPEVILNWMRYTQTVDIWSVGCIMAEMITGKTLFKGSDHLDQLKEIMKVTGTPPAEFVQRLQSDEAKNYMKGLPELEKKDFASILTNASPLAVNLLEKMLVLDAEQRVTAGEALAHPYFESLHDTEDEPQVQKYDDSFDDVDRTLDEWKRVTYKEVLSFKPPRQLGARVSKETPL
Method in brief: as §1

EGFR(E746-A750del) = target: T11, EGFR(E746-A750del) (Homo sapiens, UniProt P00533, DEL746-750)
T11 construct: purchased DiscoveRx Corporation (KinomeScan)
Method in brief: as §1

[2] = target: T12, RPS6KA4(kin.Dom.2-C-termimal) (Homo sapiens, UniProt O75676)
T12 construct: kin.Dom.2; purchased DiscoveRx Corporation
T12 sequence (O75676 411-674 limits assumed): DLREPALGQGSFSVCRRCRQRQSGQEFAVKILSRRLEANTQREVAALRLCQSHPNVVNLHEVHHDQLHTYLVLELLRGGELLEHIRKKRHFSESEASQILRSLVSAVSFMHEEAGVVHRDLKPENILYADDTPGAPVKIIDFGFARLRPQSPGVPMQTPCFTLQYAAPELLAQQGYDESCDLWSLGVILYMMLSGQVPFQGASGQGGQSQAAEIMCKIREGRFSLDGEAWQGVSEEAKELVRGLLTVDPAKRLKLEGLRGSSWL
Method in brief: as §1

EGFR(L747-S752del,P753S) = target: T13, EGFR(L747-S752del,P753S) (Homo sapiens, UniProt P00533, DEL747-752/P753S)
T13 construct: purchased DiscoveRx Corporation (KinomeScan)
Method in brief: as §1

ERBB2 = target: T14, ERBB2 (Homo sapiens, UniProt P04626)
T14 construct: purchased DiscoveRx Corporation (KinomeScan)
Method in brief: as §1

DYRK2 = target: T15, DYRK2 (Homo sapiens, UniProt Q92630)
T15 construct: purchased DiscoveRx Corporation (KinomeScan)
Method in brief: as §1

EGFR(G719S) = target: T16, EGFR(G719S) (Homo sapiens, UniProt P00533, G719S)
T16 construct: purchased DiscoveRx Corporation (KinomeScan)
Method in brief: as §1

CAMKK1 = target: T17, CAMKK1 (Homo sapiens, UniProt Q8N5S9)
T17 construct: purchased DiscoveRx Corporation (KinomeScan)
Method in brief: as §1

RET (M918T) = target: T18, RET (M918T) (Homo sapiens, UniProt P07949, M918T)
T18 construct: purchased DiscoveRx Corporation
Method in brief: as §1

LIMK2 = target: T19, LIMK2 (Homo sapiens, UniProt P53671)
T19 construct: purchased DiscoveRx Corporation (KinomeScan)
T19 sequence (P53671 whole entry): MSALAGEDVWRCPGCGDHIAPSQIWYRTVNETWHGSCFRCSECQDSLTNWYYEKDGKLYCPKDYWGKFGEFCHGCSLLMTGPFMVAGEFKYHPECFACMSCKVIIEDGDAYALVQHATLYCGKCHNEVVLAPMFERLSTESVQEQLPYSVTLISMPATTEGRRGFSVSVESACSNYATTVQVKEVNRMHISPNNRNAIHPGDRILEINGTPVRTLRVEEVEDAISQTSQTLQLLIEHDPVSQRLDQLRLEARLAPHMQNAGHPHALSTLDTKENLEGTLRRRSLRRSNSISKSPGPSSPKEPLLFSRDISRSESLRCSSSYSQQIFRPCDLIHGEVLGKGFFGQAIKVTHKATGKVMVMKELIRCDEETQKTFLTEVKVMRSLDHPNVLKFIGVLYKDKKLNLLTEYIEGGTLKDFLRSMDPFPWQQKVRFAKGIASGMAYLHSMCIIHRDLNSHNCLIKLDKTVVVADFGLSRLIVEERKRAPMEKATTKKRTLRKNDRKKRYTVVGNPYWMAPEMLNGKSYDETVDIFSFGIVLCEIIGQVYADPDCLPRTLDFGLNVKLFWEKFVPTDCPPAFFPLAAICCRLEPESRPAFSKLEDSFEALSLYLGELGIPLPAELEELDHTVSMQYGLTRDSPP
Method in brief: as §1

BLK = target: T20, BLK (Homo sapiens, UniProt P51451)
T20 construct: purchased DiscoveRx Corporation (KinomeScan)
T20 sequence (P51451 whole entry): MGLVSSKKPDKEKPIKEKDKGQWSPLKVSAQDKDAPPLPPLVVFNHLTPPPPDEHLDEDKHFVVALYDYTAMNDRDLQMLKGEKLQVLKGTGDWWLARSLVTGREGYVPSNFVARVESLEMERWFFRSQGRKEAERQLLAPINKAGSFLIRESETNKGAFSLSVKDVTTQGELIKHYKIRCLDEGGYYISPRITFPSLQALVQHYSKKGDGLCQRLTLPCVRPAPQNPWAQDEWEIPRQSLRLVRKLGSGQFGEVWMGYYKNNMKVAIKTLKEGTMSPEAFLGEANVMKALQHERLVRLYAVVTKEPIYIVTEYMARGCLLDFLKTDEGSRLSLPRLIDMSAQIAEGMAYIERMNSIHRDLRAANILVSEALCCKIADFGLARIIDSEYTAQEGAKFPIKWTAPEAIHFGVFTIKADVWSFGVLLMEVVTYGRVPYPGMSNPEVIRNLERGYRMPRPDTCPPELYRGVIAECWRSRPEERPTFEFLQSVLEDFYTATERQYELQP
Method in brief: as §1

HIPK4 = target: T21, HIPK4 (Homo sapiens, UniProt Q8NE63)
T21 construct: purchased DiscoveRx Corporation (KinomeScan)
T21 sequence (Q8NE63 whole entry): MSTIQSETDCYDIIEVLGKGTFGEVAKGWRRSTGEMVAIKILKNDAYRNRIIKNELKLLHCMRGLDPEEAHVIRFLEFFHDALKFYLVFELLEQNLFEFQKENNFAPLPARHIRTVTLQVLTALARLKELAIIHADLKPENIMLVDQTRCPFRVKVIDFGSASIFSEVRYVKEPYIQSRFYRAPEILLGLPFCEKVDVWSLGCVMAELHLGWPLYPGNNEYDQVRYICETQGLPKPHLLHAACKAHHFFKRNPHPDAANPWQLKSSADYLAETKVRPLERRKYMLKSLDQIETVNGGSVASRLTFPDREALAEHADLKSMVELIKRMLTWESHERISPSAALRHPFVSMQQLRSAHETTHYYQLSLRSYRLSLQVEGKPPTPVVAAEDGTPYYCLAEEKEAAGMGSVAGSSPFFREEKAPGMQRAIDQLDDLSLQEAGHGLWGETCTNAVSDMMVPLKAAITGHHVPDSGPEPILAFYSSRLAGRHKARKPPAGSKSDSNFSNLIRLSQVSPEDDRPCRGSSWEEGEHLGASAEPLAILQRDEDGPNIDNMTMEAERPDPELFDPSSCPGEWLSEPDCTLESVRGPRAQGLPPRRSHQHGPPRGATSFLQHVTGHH
Method in brief: as §1

TNNI3K = target: T22, TNNI3K (Homo sapiens, UniProt Q59H18)
T22 construct: purchased DiscoveRx Corporation (KinomeScan)
Method in brief: as §1

PKA7 = target: T23, PKA7 (Homo sapiens, UniProt Q9P286)
T23 construct: purchased DiscoveRx Corporation (KinomeScan panel)
Method in brief: as §1

CSNK1G3 = target: T24, CSNK1G3 (Homo sapiens, UniProt Q9Y6M4)
T24 construct: purchased DiscoveRx Corporation (KinomeScan)
Method in brief: as §1

CAMK2A = target: T25, CAMK2A (Homo sapiens, UniProt Q9UQM7)
T25 construct: purchased DiscoveRx Corporation (KinomeScan)
Method in brief: as §1

SRPK3 = target: T26, SRPK3 (Homo sapiens, UniProt Q9UPE1)
T26 construct: purchased DiscoveRx Corporation (KinomeScan)
Method in brief: as §1

MEK3 = target: T27, MEK3 (Homo sapiens, UniProt P46734)
T27 construct: purchased DiscoveRx Corporation (KinomeScan)
Method in brief: as §1

PIK3CA(M1043I) = target: T28, PIK3CA(M1043I) (Homo sapiens, UniProt P42336, M1043I)
T28 construct: purchased DiscoveRx Corporation (KinomeScan)
Method in brief: as §1

ADCK4 = target: T29, ADCK4 (Homo sapiens, UniProt Q96D53)
T29 construct: purchased DiscoveRx Corporation (KinomeScan)
Method in brief: as §1

KIT = target: T30, KIT (Homo sapiens, UniProt P10721)
T30 construct: purchased DiscoveRx Corporation (KinomeScan)
Method in brief: as §1

BRSK2 = target: T31, BRSK2 (Homo sapiens, UniProt Q8IWQ3)
T31 construct: purchased DiscoveRx Corporation (KinomeScan)
Method in brief: as §1

ERK3 = target: T32, ERK3 (Homo sapiens, UniProt Q16659)
T32 construct: purchased DiscoveRx Corporation (KinomeScan)
T32 sequence (Q16659 whole entry): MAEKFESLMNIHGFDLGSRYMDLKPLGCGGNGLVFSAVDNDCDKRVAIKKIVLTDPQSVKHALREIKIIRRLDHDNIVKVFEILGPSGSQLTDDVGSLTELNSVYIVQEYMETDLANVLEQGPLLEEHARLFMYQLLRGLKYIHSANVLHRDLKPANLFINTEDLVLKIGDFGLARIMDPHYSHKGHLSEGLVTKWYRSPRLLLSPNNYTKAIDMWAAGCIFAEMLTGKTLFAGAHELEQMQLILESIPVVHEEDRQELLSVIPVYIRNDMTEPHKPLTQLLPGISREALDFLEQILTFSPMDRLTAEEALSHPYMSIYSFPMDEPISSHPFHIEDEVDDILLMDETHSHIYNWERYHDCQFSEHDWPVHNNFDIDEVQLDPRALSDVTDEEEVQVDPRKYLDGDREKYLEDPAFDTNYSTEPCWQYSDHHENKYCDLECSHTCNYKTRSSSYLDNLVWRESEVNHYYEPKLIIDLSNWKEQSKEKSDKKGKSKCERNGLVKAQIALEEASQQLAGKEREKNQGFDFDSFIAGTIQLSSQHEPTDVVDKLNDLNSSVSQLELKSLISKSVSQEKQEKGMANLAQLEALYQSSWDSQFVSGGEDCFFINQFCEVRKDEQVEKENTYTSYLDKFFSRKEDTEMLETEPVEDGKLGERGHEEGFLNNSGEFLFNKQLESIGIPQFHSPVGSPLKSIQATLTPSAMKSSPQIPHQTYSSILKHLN
Method in brief: as §1

FES = target: T33, FES (Homo sapiens, UniProt P07332)
T33 construct: purchased DiscoveRx Corporation (KinomeScan)
T33 sequence (P07332 whole entry): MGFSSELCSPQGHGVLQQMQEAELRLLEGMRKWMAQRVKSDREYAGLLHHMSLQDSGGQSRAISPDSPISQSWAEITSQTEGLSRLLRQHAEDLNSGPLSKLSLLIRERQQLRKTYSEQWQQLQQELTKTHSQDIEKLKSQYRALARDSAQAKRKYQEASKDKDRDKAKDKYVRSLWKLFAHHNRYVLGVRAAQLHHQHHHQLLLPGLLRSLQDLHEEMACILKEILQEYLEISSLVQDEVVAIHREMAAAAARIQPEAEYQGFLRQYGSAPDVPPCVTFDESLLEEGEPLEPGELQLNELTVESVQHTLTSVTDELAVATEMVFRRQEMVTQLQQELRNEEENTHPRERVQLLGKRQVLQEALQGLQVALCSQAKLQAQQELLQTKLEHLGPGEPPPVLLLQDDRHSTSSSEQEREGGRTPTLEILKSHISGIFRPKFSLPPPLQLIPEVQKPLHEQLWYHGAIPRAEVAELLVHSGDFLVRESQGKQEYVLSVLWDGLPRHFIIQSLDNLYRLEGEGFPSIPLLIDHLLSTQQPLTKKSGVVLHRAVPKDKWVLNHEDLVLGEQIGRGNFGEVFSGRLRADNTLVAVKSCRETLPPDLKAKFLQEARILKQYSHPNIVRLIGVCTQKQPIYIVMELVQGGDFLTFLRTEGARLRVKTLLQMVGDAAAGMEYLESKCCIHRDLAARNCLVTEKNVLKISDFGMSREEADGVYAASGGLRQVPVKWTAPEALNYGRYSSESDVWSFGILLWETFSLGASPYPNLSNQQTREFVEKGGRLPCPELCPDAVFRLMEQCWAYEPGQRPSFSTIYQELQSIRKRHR
Method in brief: as §1

FLT3(R834Q) = target: T34, FLT3(R834Q) (Homo sapiens, UniProt P36888, R834Q)
T34 construct: purchased DiscoveRx Corporation (KinomeScan)
Method in brief: as §1

## CCOP(=O)(CN1CCC(COc2cc3nccc(Oc4ccc(NC(=O)C5(C(=O)Nc6ccc(F)cc6)CC5)cc4F)c3cc2OC)CC1)OCC [Example 10, N1-[4-[[7-[[1-(diethoxyphosphorylmethyl)-4-piperidinyl]methoxyl]-6-methoxyl-4-quinolyl]oxyl]-3-fluorophenyl]-N1′-(4-fluorophenyl)cyclopropane-1,1-dicarboxamide]
EPHA5
  % Ctrl@1000 nM: 3.5 % Ctrl
PIP5K2C
  % Ctrl@1000 nM: 38 % Ctrl
PIK3CA(E545A)
  % Ctrl@1000 nM: 74 % Ctrl
TNK1
  % Ctrl@1000 nM: 30 % Ctrl
YES
  % Ctrl@1000 nM: 20 % Ctrl
EGFR(L747-T751del,Sins)
  % Ctrl@1000 nM: 72 % Ctrl
[1]
  % Ctrl@1000 nM: 84 % Ctrl
PHKG1
  % Ctrl@1000 nM: 100 % Ctrl
DAPK3
  % Ctrl@1000 nM: 100 % Ctrl
P38-gamma
  % Ctrl@1000 nM: 100 % Ctrl
EGFR(E746-A750del)
  % Ctrl@1000 nM: 92 % Ctrl
[2]
  % Ctrl@1000 nM: 100 % Ctrl
EGFR(L747-S752del,P753S)
  % Ctrl@1000 nM: 67 % Ctrl
ERBB2
  % Ctrl@1000 nM: 96 % Ctrl
DYRK2
  % Ctrl@1000 nM: 100 % Ctrl
EGFR(G719S)
  % Ctrl@1000 nM: 81 % Ctrl
CAMKK1
  % Ctrl@1000 nM: 32 % Ctrl
RET (M918T)
  % Ctrl@1000 nM: 0.05 % Ctrl
LIMK2
  % Ctrl@1000 nM: 100 % Ctrl
BLK
  % Ctrl@1000 nM: 0.5 % Ctrl
HIPK4
  % Ctrl@1000 nM: 0.15 % Ctrl
TNNI3K
  % Ctrl@1000 nM: 94 % Ctrl
PKA7
  % Ctrl@1000 nM: 100 % Ctrl
CSNK1G3
  % Ctrl@1000 nM: 100 % Ctrl
CAMK2A
  % Ctrl@1000 nM: 100 % Ctrl
SRPK3
  % Ctrl@1000 nM: 100 % Ctrl
MEK3
  % Ctrl@1000 nM: 100 % Ctrl
PIK3CA(M1043I)
  % Ctrl@1000 nM: 100 % Ctrl
ADCK4
  % Ctrl@1000 nM: 100 % Ctrl
KIT
  % Ctrl@1000 nM: 0.2 % Ctrl
BRSK2
  % Ctrl@1000 nM: 100 % Ctrl
ERK3
  % Ctrl@1000 nM: 100 % Ctrl
FES
  % Ctrl@1000 nM: 44 % Ctrl
FLT3(R834Q)
  % Ctrl@1000 nM: 16 % Ctrl
